Reference: ChEMBL document CHEMBL3228010, “Potential antitumor agents. 29. Quantitative structure-activity relationships for the antileukemic bisquaternary ammonium heterocycles” (J Med Chem, 1979)

Columns and labels:
L1210 [1] = assay: Antitumor activity against mouse L1210 cells […] in ip dosed C3H X DBA2 F1 hybrid mouse on day 0 and dosed once daily on days 1 to 5 assessed as increase in life span relative to control; type: functional
L1210 [2] = assay: Antitumor activity against mouse L1210 cells […] in ip dosed C3H X DBA2 F1 hybrid mouse on day 0 and dosed at LD10 level once daily on days 1 to 5 assessed as increase in life span relative to control; type: functional
Mus musculus = assay: Toxicity in ip dosed C3H X DBA2 F1 hybrid mouse […] with mouse L1210 cells on day 0 and dosed once daily on days 1 to 5 measured after 50 days; type: organism-based; conditions: in vivo, 1200 h
[3] = Lipophilic-hydrophilic balance, Rm of the compound by partition chromatography; type: physicochemical

Row | Structure (SMILES) | D40 (L1210 [1]) [mg/kg] | log(ILSmax) (L1210 [2]) | LD10 (Mus musculus) [mg/kg] | Rm [3]
1 | CC[n+]1cccc(-c2ccc(NC(=O)/C=C/c3ccc(C(=O)Nc4ccc(-c5ccc(-c6ccc(-c7ccc[n+](CC)c7)cc6)cc5)cc4)cc3)cc2)c1.Cc1ccc(S(=O)(=O)[O-])cc1.Cc1ccc(S(=O)(=O)[O-])cc1 | 5.2 | 2.25 | 60 | -0.3
2 | C[n+]1ccc(Nc2ccc(NC(=O)c3ccc(Nc4cc[n+](C)c5cc(N)ccc45)cc3N)cc2)cc1.[Br-].[Br-] | 1.2 | 2.45 | 20 | -0.12
3 | CC[n+]1cccc(NC(=O)c2ccc(NC(=O)/C=C/c3ccc(C(=O)Nc4ccc(C(=O)Nc5ccc[n+](CC)c5)cc4)cc3)cc2)c1.Cc1ccc(S(=O)(=O)[O-])cc1.Cc1ccc(S(=O)(=O)[O-])cc1 | 22 | 1.88 | 55 | -0.58
4 | C[n+]1cccc(NC(=O)c2ccc(NC(=O)c3ccc(C(=O)Nc4ccc5c(ccc[n+]5C)c4)cc3)cc2)c1.Cc1ccc(S(=O)(=O)[O-])cc1.Cc1ccc(S(=O)(=O)[O-])cc1 | 12 | 2.03 | 27 | -0.25
5 | CCCC[n+]1cccc2cc(NC(=O)c3ccc(-c4ccc(-c5ccc(-c6ccc(C(=O)Nc7ccc8c(ccc[n+]8CCCC)c7)cc6)cc5)cc4)cc3)ccc21.Cc1ccc(S(=O)(=O)[O-])cc1.Cc1ccc(S(=O)(=O)[O-])cc1 | 15 | 1.73 | 57 | 0.74
6 | CCCC[n+]1cccc2cc(NC(=O)COc3ccc(C(=O)Nc4ccc5c(ccc[n+]5CCCC)c4)cc3)ccc21.Cc1ccc(S(=O)(=O)[O-])cc1.Cc1ccc(S(=O)(=O)[O-])cc1 | 80 | 1.96 | 210 | 0.41
7 | CCC[n+]1cccc(NC(=O)c2ccc(NC(=O)/C=C/c3ccc(C(=O)Nc4ccc(C(=O)Nc5ccc[n+](CCC)c5)cc4)cc3)cc2)c1.Cc1ccc(S(=O)(=O)[O-])cc1.Cc1ccc(S(=O)(=O)[O-])cc1 | 11.5 | 1.95 | 46 | -0.2
8 | CC[n+]1ccc(-c2ccc(-c3ccc(-c4ccc(NC(=O)c5ccc(C(=O)Nc6ccc(-c7ccc(-c8ccc(-c9cc[n+](CC)cc9)cc8)cc7)cc6)cc5)cc4)cc3)cc2)cc1.Cc1ccc(S(=O)(=O)[O-])cc1.Cc1ccc(S(=O)(=O)[O-])cc1 | 1.2 | 2.23 | 14 | 0.09
9 | C[n+]1ccc(Nc2ccc(NC(=O)c3ccc(C(=O)Nc4ccc(C(=O)Nc5ccc[n+](C)c5)cc4)cc3)cc2)cc1.[I-].[I-] | 0.5 | 2.12 | 4.5 | -0.12
10 | CCC[n+]1cccc(NC(=O)c2ccc(NC(=O)c3ccc(C(=O)Nc4ccc(C(=O)Nc5ccc[n+](CCC)c5)c(N)c4)cc3)cc2N)c1.Cc1ccc(S(=O)(=O)[O-])cc1.Cc1ccc(S(=O)(=O)[O-])cc1 | 5 | 2.02 | 30 | -0.38
11 | CCC[n+]1cccc(NC(=O)c2ccc(NC(=O)c3ccc(C(=O)Nc4ccc(C(=O)Nc5ccc[n+](CCC)c5)cc4)c(OC)c3)cc2)c1.Cc1ccc(S(=O)(=O)[O-])cc1.Cc1ccc(S(=O)(=O)[O-])cc1 | 22 | 1.6 | 22 | 0.78
12 | CC[n+]1ccc(Nc2ccc(C(=O)Nc3ccc(Nc4cc[n+](CC)c5ccccc45)cc3)cc2)cc1.[Br-].[Br-] | 0.6 | 2.16 | 10 | 0.45
13 | CCC[n+]1ccc(Nc2ccc(NC(=O)c3ccc(Nc4cc[n+](CCC)c5ccc(N)cc45)cc3N)cc2)cc1.[I-].[I-] | 5.9 | 2.03 | 20 | 0.52
14 | CC[n+]1cccc(NC(=O)c2ccc(NC(=O)c3ccc(C(=O)Nc4ccc(C(=O)Nc5ccc[n+](CC)c5)c(N)c4)cc3)cc2N)c1.Cc1ccc(S(=O)(=O)[O-])cc1.Cc1ccc(S(=O)(=O)[O-])cc1 | 3.2 | 2.18 | 10 | -0.65
15 | CC[n+]1ccc(Nc2ccc(C(=O)Nc3ccc(/C(C)=N/NC(=N)N)cc3)c(N)c2)c2cc(N)ccc21.Cc1ccc(S(=O)(=O)O)cc1.Cc1ccc(S(=O)(=O)[O-])cc1 | 6 | 2.32 | 50 | -0.2
16 | CCC[n+]1ccc(-c2ccc(NC(=O)c3ccc(Nc4cc[n+](CCC)c5ccccc45)cc3)cc2)cc1.[Br-].[Br-] | 4.8 | 1.6 | 4.8 | 0.8
17 | CC[n+]1cccc(NC(=O)c2ccc(NC(=O)c3ccc(C(=O)Nc4ccc(C(=O)Nc5ccc[n+](CC)c5)cc4)c(C)c3)cc2)c1.Cc1ccc(S(=O)(=O)[O-])cc1.Cc1ccc(S(=O)(=O)[O-])cc1 | 9.6 | 1.85 | 26 | 0.38
18 | CCCCC[n+]1cccc2cc(NC(=O)c3ccc(C(=O)Nc4ccc5c(ccc[n+]5CCCCC)c4)nc3)ccc21.Cc1ccc(S(=O)(=O)[O-])cc1.Cc1ccc(S(=O)(=O)[O-])cc1 |  | <1.4 | 250 | 0.6
19 | CC[n+]1cccc2cc(NC(=O)c3ccc(C(=O)Nc4ccc5c(ccc[n+]5CC)c4)c(N)c3)ccc21.Cc1ccc(S(=O)(=O)[O-])cc1.Cc1ccc(S(=O)(=O)[O-])cc1 |  | <1.4 | 6 | -0.01
20 | CC[n+]1ccc(Nc2ccc(NC(=O)CCCCCCC(=O)Nc3ccc(Nc4cc[n+](CC)cc4)cc3)cc2)cc1.[Br-].[Br-] |  | <1.4 | 10 | 0.83
21 | CCC[n+]1cccc(NC(=O)c2ccc(NC(=O)c3ccc(C(=O)Nc4ccc(C(=O)Nc5ccc[n+](CCC)c5)cc4)c(Cl)c3)cc2)c1.Cc1ccc(S(=O)(=O)[O-])cc1.Cc1ccc(S(=O)(=O)[O-])cc1 |  | <1.4 | 40 | 0.75
22 | C[n+]1cccc2cc(NC(=O)/C=C/c3ccc(C(=O)Nc4ccc5c(ccc[n+]5C)c4)cc3)ccc21.Cc1ccc(S(=O)(=O)[O-])cc1.Cc1ccc(S(=O)(=O)[O-])cc1 |  | <1.4 | 3 | -0.2
23 | CC[n+]1ccc(Nc2ccc(NC(=O)CCCCCC(=O)Nc3ccc(Nc4cc[n+](CC)cc4)cc3)cc2)cc1.[O-][Cl+3]([O-])([O-])[O-].[O-][Cl+3]([O-])([O-])[O-] |  | <1.4 | 20 | 0.69
24 | CCOCC[n+]1cccc2cc(NC(=O)c3ccc(C(=O)Nc4ccc5c(ccc[n+]5CCOCC)c4)cc3)ccc21.Cc1ccc(S(=O)(=O)[O-])cc1.Cc1ccc(S(=O)(=O)[O-])cc1 |  | <1.4 | 20 | 0.8
25 | CC[n+]1ccccc1NC(=O)c1ccc(NC(=O)c2ccc(C(=O)Nc3ccc(C(=O)Nc4cccc[n+]4CC)cc3)cc2)cc1.Cc1ccc(S(=O)(=O)[O-])cc1.Cc1ccc(S(=O)(=O)[O-])cc1 |  | <1.4 | 13 | 0.57
